Here are results for two compounds from publication doi:10.1101/2025.11.12.688093v2 (biorxiv, 2026).

Holding throughout (assay type): biochemical
The target in experiment [1] is CDK4/CycD1 (Homo sapiens, UniProt P11802). Briefly: kinase panel, HTRF or ADP-Glo, single dose. Conditions: read-out: % inhibition at 1 μM. On the technique in general: TR-FRET usually uses a lanthanide donor and a delayed reading to cut background.
In experiment [2] the target is recombinant CK2 (casein kinase 2) (Homo sapiens, UniProt P68400). Briefly: Kinase-Glo residual ATP luminescence.
In experiment [3] the target is CDK3/CycE1 (Homo sapiens, UniProt Q00526). Briefly: kinase panel, HTRF or ADP-Glo, single dose. As to conditions: read-out: % inhibition at 10 μM.
Experiment [4] has as its target CDK1/CycA2 (Homo sapiens, UniProt P06493). Briefly: kinase panel, HTRF or ADP-Glo, single dose. Conditions: read-out: % inhibition at 10 μM.
Experiment [5] concerns the target CDK9/CycT1 (Homo sapiens, UniProt P50750). Briefly: kinase panel, HTRF or ADP-Glo, single dose. As to conditions: read-out: % inhibition at 10 μM.
In experiment [6] the target is CDK2/CycE1 (Homo sapiens, UniProt P24941). Briefly: kinase panel, HTRF or ADP-Glo, single dose. Conditions: read-out: % inhibition at 10 μM.

The structures appear in SMILES notation. pIC50: −log10 of the molar value.

Chain of recombinant CK2 (casein kinase 2) (P68400 whole entry): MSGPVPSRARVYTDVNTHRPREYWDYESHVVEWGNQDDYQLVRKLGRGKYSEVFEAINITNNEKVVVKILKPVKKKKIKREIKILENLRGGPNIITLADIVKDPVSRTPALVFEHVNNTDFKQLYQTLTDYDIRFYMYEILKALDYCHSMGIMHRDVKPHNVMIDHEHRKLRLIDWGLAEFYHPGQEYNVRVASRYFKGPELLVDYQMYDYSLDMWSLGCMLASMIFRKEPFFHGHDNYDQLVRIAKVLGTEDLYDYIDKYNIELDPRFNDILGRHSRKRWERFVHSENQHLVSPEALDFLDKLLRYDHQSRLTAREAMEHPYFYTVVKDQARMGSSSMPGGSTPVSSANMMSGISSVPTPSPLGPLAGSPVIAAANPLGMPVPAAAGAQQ
Chain of recombinant CK2 (casein kinase 2) (P67870 2-215 partner): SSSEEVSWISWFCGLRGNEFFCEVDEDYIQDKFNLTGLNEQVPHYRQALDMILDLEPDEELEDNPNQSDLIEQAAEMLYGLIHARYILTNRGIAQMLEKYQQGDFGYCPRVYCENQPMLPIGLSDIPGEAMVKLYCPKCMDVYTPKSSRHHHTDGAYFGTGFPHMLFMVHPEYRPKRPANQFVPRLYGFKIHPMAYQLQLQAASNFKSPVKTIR
Chain of CDK9/CycT1 (P50750 whole entry): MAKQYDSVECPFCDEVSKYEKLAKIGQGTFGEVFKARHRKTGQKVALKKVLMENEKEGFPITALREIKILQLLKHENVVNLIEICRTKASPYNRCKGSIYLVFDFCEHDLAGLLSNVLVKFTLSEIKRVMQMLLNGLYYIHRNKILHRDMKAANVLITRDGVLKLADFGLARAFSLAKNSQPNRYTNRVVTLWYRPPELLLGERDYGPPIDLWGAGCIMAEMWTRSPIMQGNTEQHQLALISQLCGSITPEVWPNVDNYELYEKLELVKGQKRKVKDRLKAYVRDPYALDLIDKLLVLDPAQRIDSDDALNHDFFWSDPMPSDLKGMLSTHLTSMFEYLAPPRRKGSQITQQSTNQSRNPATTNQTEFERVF
Chain of CDK9/CycT1 (O60563 whole entry partner): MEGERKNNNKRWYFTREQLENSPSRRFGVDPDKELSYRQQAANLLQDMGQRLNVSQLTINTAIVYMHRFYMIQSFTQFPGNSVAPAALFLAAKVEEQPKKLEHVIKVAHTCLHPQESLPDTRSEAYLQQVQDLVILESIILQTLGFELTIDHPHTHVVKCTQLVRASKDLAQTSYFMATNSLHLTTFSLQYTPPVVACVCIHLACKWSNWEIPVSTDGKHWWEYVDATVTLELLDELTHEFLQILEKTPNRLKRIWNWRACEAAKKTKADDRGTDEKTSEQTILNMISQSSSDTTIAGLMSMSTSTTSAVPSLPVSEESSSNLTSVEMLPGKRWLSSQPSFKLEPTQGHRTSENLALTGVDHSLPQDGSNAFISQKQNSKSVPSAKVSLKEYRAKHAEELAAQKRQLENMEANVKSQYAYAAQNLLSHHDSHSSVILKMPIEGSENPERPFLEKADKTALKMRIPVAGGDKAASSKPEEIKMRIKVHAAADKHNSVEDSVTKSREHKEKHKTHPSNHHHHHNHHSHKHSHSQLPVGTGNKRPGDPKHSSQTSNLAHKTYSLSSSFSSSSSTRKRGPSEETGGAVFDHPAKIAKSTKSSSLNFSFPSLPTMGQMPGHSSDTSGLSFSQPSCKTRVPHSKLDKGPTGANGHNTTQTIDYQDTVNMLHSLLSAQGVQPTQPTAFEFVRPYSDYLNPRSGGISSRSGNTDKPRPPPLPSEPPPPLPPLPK
Chain of CDK1/CycA2 (P20248 whole entry): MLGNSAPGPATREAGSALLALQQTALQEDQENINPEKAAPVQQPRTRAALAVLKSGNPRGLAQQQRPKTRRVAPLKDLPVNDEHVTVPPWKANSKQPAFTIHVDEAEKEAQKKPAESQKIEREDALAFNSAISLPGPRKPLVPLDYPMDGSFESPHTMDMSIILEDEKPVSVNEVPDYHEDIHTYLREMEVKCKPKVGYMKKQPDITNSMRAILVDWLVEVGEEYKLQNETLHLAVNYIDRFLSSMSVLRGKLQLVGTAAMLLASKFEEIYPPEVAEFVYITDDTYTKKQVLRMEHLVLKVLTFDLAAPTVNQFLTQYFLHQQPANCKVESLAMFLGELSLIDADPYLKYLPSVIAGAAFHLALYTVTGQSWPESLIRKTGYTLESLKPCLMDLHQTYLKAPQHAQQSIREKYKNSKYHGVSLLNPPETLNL
Chain of CDK1/CycA2 (P06493 whole entry): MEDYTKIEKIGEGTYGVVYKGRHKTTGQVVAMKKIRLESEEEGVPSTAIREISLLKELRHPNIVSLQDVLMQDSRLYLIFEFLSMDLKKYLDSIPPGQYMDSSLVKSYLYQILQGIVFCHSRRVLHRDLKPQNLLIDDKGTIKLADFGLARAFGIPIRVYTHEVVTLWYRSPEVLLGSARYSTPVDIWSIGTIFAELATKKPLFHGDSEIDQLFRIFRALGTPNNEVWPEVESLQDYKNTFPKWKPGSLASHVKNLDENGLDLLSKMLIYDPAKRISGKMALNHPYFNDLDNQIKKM
Chain of CDK4/CycD1 (P11802 2-303): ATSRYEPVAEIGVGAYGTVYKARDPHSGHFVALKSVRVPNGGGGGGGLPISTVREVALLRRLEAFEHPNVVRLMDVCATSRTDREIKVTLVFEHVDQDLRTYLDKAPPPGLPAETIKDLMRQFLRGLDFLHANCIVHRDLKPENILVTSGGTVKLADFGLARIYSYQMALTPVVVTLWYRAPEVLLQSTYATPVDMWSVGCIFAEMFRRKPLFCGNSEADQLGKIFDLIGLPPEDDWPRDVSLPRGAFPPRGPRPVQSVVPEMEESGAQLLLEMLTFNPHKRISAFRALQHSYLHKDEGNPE
Chain of CDK4/CycD1 (P24385 whole entry partner): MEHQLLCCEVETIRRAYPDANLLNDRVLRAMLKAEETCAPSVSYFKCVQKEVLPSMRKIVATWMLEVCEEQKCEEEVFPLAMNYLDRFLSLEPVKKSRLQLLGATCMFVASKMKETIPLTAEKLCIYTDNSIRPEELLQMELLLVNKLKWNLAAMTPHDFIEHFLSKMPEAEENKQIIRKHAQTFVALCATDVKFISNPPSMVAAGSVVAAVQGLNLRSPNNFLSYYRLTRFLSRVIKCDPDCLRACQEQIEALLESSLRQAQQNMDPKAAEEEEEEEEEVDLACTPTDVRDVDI
Chain of CDK3/CycE1 (Q00526 whole entry): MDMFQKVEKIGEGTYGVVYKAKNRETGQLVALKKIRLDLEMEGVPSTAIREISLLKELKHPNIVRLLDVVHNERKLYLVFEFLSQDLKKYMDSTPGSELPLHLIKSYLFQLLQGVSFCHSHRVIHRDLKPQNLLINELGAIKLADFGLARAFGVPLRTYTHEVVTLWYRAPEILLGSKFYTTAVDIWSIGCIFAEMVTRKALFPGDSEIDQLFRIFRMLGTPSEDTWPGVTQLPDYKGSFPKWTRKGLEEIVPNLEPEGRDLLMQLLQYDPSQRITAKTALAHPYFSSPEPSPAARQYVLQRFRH
Chain of CDK3/CycE1 (P24864 whole entry, further chain): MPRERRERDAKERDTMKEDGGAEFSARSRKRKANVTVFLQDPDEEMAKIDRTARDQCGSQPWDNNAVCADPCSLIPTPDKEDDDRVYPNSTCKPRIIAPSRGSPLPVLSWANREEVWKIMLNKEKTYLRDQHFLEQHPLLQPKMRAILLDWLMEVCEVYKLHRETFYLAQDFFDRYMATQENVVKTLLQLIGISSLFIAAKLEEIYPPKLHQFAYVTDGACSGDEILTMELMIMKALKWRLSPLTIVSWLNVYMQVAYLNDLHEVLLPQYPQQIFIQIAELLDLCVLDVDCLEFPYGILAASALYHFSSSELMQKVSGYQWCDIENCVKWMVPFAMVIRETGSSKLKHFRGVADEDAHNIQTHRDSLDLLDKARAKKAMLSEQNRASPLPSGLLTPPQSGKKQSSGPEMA

The term inhibition denotes the drop in the measured response relative to a control, in per cent. As usually defined, the pIC50 is −log10 of the IC50, conventionally taken in molar units. For the compound `N=C1NC(=O)/C(=C/c2ccc(O)c([N+](=O)[O-])c2)S1` [compound 2, Compound 2], the inhibition at 1 µM in experiment [1] amounted to 10.2%. For the same compound, in experiment [2], the pIC50 is 6.81.

For `Cc1cccc(NCN2C(=O)S/C(=C\c3ccccc3)C2=O)c1` [compound 3, Compound 3], the inhibition at 10 µM in experiment [3] turned out to be 15.3%; in experiment [4] it was 14.7%; in experiment [5], 36.1%; in experiment [6], 12.4%. In addition, the negative logarithm of the IC50 (pIC50) in experiment [2] was 6.70.
